The nature of data set [1]: Plasma protein binding, equilibrium dialysis, human plasma. As to conditions: 5 hours at 37° C., read-out: PPB % bound Human (converted). Type of data set: in vitro ADME. How it is done: (§1) The compounds of interest were evaluated for various PK parameters. Specifically CACO permeability/efflux and plasma protein binding (PPP) were determined. Stock solutions were prepared at 10 mM in DMSO for test and reference compounds. Aliquots of the stock solution were diluted to 500× of final concentration (0.5 mM) with DMSO, then further diluted upon the addition of bank PE3-buffer to 20× of final concentration (20 μM). Then test and reference compounds were prepared in plasma at 1 μM. For 0 hour incubation: 25 μL of the plasma spiked with test and reference compounds was transferred into a 96-well sample preparation plate, and then 25 μL blank PB-buffer was added. The samples were quenched by 200 μL of IS solution to prepare [Initial]0h samples. For 5 hours incubation: 100 μL of the plasma spiking with test and reference compounds was loaded on donor side, and 100 μL of blank PB-buffer were loaded on receiver side of the equilibrium dialysis device. Samples were incubated in an air-bath shaker (60 rpm) for 5 hours at 37° C. After 5 hours incubation, 25 μL of samples (from both the donor sides and receiver sides of the dialysis apparatus) was aspirated and added into new sample preparation plates, separately. 25 μL of blank PB-buffer was added to donor side samples and 25 μL of blank plasma was added to receiver side samples to balance the matrix. The samples were quenched with 200 μL of IS solution. The assay plate was shaken at the vibrator (Hangzhou Allsheng, MX100-4A) for 10 min (600 rpm) and then centrifuged at 5,594×g for 15 min (Thermo Multifuge×3R). An aliquot of the 50 μL supernatant was taken from each well and diluted by 50 μL distilled water, then analyzed by UPLC-MS/MS.
On the technique in general: Equilibrium dialysis compares concentrations on both sides of a semipermeable membrane.

The nature of data set [2]: Plasma protein binding, equilibrium dialysis, mouse plasma. Format: in vitro ADME. The note with it: 5 hours at 37° C., read-out: PPB % bound Mouse (converted). How it is done: as §1
Data set [3] relates to sumoylation levels (SUMO 2/3 conjugates) in HCT-116 cells. Kind of data set: HCT-116 4 Hour Cell Assay (Western, SUMO 2/3 conjugates). Format: cell-based. The note with it: Homo sapiens, HCT-116, 4 h, 4 h treatment, Anti-Sumo 2-3 immunoblot, read-out: HCT-116 Western 4 h IC50 (μM) Ave. Summed up: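 Cells treated 4 h with 11 three-fold dilutions from 25 μM; lysed in RIPA with NEM and Benzonase. Non-reducing SDS-PAGE immunoblot with anti-SUMO 2/3 mAb, IRDye fluorescent detection; conjugate signal normalized to total protein stain, IC50 from quantified bands.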
Background: A western blot detects proteins with antibodies after separation by electrophoresis.

Data set [4] addresses SAE1 (Homo sapiens (Human), UniProt Q9UBE0+Q9UBT2). Kind of data set: SAE High Throughput Biochemical Assay (HTRF), 15 min preincubation. As to conditions: read-out: 15 min preincubation HTRF IC50 (μM) Ave, SAE1 12.5 nM, ATP 100 μM. Summed up:
(§2)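 SAE1 (12.5 nM) was preincubated with compound for 15 min at RT in HEPES pH 7.5, 0.1% BSA, 10 mM MgCl2. The reaction was then started with SUMO-GST and UBC9-His (40 nM each) plus 100 μM ATP for 45 min. After KF stop, HTRF (anti-GST-XL665/anti-His-EuK) was read at 2 h and overnight; some compounds were tested singly at 25 micromolar as percent of control.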
In general terms: Time-resolved FRET reads energy transfer from a long-lived donor to a nearby acceptor.

Data set [5] has as its system Caco-2 cells. Kind of data set: Caco-2 permeability/efflux. Type of data set: in vitro ADME. The note with it: 10 uM, 37° C., 90 min, pH 7.4. How it is done: Caco-2 cells were obtained from American Tissue Culture Collection (Rockville, MD). The cells were maintained in Modified Eagle's medium (MEM), containing 10% heat-inactivated fetal bovine serum (FBS), and 1% non-essential amino acids, in CO2 at 37° C. Cells were seeded on polycarbonate filter inserts (Millipore, CAT #PSHT 010 R5). The cells were cultured for 21-28 days prior to the permeability experiments. The Lucifer Yellow permeability was checked before and after the assay. Compounds were dissolved at 10 mM in 100% dimethyl sulfoxide (DMSO) and diluted for studies in Hanks Balanced Salt Solution (HBSS, Invitrogen, Cat #14025-092) with 25 mM HEPES, pH 7.4. Compounds were tested at 10 µM in both the apical-to-basolateral (A-B) and basolateral-to-apical (B-A) directions, incubations were conducted at 37° C. for 90 min. At the end of incubation, samples were diluted by assay buffer, and analyzed by LC-MS/MS. The concentrations of the compounds were quantified by standard curve. The first comparator example (Comp. Ex. 1) is the chloro substituted thienodihydropyridine

A short description of data set [6]: Solubility Evaluation. Format: physicochemical. The note with it: kinetic from dmso stock, 1 hour at RT. The method, then:
The compounds of interest were evaluated for their solubility in various biological solutions. Specifically, aliquots (8 μL) of reference and test compound stock solutions (10 mM) were added into 792 μL of buffer (PBS, pH7.4, FaSSIF, pH 6.5, or FaSSGF, pH 1.6) respectively (Final DMSO conc.: 1%). Sample tubes were shaken for 1 hour (1000 rpm) at RT. The experiment was calibrated using 300 μM spiked solution (SS) in MeOH/CAN (4:1) by adding 6 μL of 10 mM compound stock solution in 194 μL MeOH/ACN(4:1) ranging from 60 μM to 0.02 μM. The samples were centrifuged (10 min-12000 rpm) to precipitate un-dissolved particles. The supernatants were transferred to a new tube or plate. Supernatants were diluted 10 times and 100 times with 100 mM buffer then analyzed by LC-MS/MS. SGF=simulated gastric fluid, SIF=simulated intestinal fluid, PBS=phosphate buffered saline pH 7.4 Values are noted in μM.

Data set [7] has as its target SAE1 (Homo sapiens (Human), UniProt Q9UBT2). Kind of data set: SAE High Throughput Biochemical Assay (HTRF), 15 min preincubation. The note with it: SAE1 12.5 nM, ATP 100 μM. The method, boiled down:
as §2

[8] abbreviates: PBS (phosphate buffered saline), aqueous buffer, phosphate buffered saline pH 7.4, 1% DMSO, read-out: Solubilities PBS.
[9] abbreviates: simulated intestinal fluid (FaSSIF, pH 6.5), 1% DMSO, read-out: Solubilities SIF.

In brackets after ≈: the same amount, converted by molar mass. Like-named read-outs stand apart in the source and are kept apart here.

Chain of SAE1 (Homo sapiens (Human), UniProt Q9UBE0+Q9UBT2) (Q9UBE0 whole entry): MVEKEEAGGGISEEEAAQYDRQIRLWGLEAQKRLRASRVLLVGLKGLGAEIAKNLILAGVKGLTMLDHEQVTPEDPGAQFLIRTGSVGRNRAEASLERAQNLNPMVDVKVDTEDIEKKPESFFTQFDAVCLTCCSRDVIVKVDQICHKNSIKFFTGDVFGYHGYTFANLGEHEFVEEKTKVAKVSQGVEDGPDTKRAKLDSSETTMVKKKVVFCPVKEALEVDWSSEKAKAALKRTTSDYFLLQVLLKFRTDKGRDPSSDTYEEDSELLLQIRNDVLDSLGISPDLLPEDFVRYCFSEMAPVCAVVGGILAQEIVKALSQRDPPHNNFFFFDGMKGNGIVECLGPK
Chain of SAE1 (Homo sapiens (Human), UniProt Q9UBE0+Q9UBT2) (Q9UBT2 whole entry): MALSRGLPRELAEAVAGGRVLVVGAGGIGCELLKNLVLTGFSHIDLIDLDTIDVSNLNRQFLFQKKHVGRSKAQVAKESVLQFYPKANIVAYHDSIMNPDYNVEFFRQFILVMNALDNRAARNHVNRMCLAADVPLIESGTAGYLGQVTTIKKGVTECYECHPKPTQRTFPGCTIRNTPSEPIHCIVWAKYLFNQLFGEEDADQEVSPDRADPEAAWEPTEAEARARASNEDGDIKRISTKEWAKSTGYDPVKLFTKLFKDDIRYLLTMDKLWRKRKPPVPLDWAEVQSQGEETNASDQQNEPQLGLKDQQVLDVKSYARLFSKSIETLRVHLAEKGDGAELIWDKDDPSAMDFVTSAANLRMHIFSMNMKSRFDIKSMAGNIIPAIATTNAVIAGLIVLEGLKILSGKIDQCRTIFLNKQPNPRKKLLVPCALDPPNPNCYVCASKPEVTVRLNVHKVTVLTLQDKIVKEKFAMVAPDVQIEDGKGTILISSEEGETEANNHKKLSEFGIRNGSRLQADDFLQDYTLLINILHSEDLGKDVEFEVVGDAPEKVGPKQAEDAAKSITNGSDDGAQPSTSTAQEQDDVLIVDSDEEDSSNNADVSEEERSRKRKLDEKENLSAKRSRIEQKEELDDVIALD
Chain of SAE1 (Homo sapiens (Human), UniProt Q9UBT2) (Q9UBE0 whole entry): as the sequence (Q9UBE0 whole entry) above
Chain of SAE1 (Homo sapiens (Human), UniProt Q9UBT2) (Q9UBT2 whole entry): as the sequence (Q9UBT2 whole entry) above

`C=CC(=O)N1Cc2sc(Cl)cc2[C@H](c2ccccc2-c2cn(CC)nc2C(F)(F)F)C1` [Comp. Ex. 1, reference compound]: the fraction unbound at 5 h, 1 μM in data set [1] is 0.002; in data set [2] it was < 0.001.
The like results for `CCn1cc(-c2ccccc2[C@@H]2CN(C(=O)/C=C/CN(C)C)Cc3sc(Cl)cc32)c(C(F)(F)F)n1` [Comp. Ex. 2, reference compound] were, in that order, 0.008 and < 0.003.
The IC50 is the concentration that gives 50% inhibition. As for `C=CC(=O)N1Cc2sc(C#N)cc2[C@H](c2cccc(F)c2-c2cn(CC)nc2C(F)(F)F)C1` [Compound 227], in data set [2], the fraction unbound at 5 h, 1 μM was 0.021. Also, the IC50 in data set [3] amounted to 0.057 µM; in data set [4] it was 0.12 µM.
Turning to `CCn1cc(-c2c(F)cccc2[C@@H]2CN(C(=O)/C=C/[C@H](C)NC)Cc3sc(C#N)cc32)c(C(F)(F)F)n1` [Example 89, (S)-4-(2-(1-Ethyl-3-(trifluoromethyl)-1 H pyrazol-4-yl)-3-fluorophenyl)-6-((S, E)-4-(methylamino)pent-2-enoyl)-4,5,6,7-tetrahydrothieno[2,3-c]pyridine-2-carbonitrile], the Caco-2 apparent permeability (Papp) in data set [5] (apical-to-basolateral) was 8 10^-6 cm/s; in data set [5] (basolateral-to-apical), 11 10^-6 cm/s. Also, the results for the fraction unbound at 5 h, 1 μM in data set [1] and in data set [2] were 0.029 and 0.024, respectively. The results for the solubility at 1 h in data set [6] (setting [8]) and in data set [6] (setting [9]) were 78 µM (≈ 41.5 µg/mL) and 90 µM (≈ 47.8 µg/mL), respectively. In addition, the IC50 in data set [3] was 0.145 µM; in data set [4], 1.13 µM.
As for `CCn1cc(-c2ccccc2[C@@H]2CN(C(=O)/C=C/CNC3(C)CC3)Cc3sc(C#N)cc32)c(C(F)(F)F)n1` [Example 94, (S,E)-4-(2-(1-Ethyl-3-(trifluoromethyl)-1H pyrazol-4-yl)phenyl)-6-(4-((1-methylcyclopropyl)amino)but-2-enoyl)-4,5,6,7-tetrahydrothieno[2,3-c]pyridine-2-carbonitrile], the IC50 was 1.16 µM in data set [3] and 1860 nM in data set [7].
As for `CCn1cc(-c2c(F)cccc2[C@@H]2CN(C(=O)/C=C/[C@@H]3CCCN3)Cc3sc(C#N)cc32)c(C(F)(F)F)n1` [Example 118, (S)-4-(2-(1-Ethyl-3-(trifluoromethyl)-1H-pyrazol-4-yl)-3-fluorophenyl)-6-((E)-3-((S)pyrrolidin-2-yl)acryloyl)-4,5,6,7-tetrahydrothieno[2,3-c]pyridine-2-carbonitrile], the Caco-2 apparent permeability (Papp) is 4 10^-6 cm/s in data set [5] (apical-to-basolateral) and 21 10^-6 cm/s in data set [5] (basolateral-to-apical). In addition, the fraction unbound at 5 h, 1 μM in data set [1] was 0.032; in data set [2], 0.014. Moreover, the solubility at 1 h in data set [6] (setting [8]) is 57 µM (≈ 31 µg/mL); in data set [6] (setting [9]), 70 µM (≈ 38.1 µg/mL). In addition, the IC50 in data set [3] worked out at 0.114 µM; in data set [4], 0.29 µM.
As to `CCn1cc(-c2ccccc2[C@@H]2CN(C(=O)C#CC(C)(C)N)Cc3sc(C#N)cc32)c(C(F)(F)F)n1` [Example 134, (S)-6-(4-Amino-4-methylpent-2-ynoyl)-4-(2-(1-ethyl-3-(trifluoromethyl)-1H-pyrazol-4-yl)phenyl)-4,5,6,7-tetrahydrothieno[2,3-c]pyridine-2-carbonitrile], the IC50 in data set [3] worked out at 3.12 µM; in data set [7], 320 nM.
As for `CC(C)n1cc(-c2ccccc2[C@@H]2CN(C(=O)/C=C/CN(C)C)Cc3sc(C#N)cc32)c(C(F)(F)F)n1` [Example 175], the IC50 turned out to be 0.321 µM in data set [3] and 3050 nM in data set [7].
As to `COc1cncnc1-n1cc(-c2ccccc2[C@@H]2CN(C(=O)/C=C/CN(C)C)Cc3sc(C#N)cc32)c(C(F)(F)F)n1` [Example 178, (S,E)-6-(4-(dimethylamino)but-2-enoyl)-4-(2-(1-(5-methoxypyrimidin-4-yl)-3-(trifluoromethyl)-1H pyrazol-4-yl)phenyl)-4,5,6,7-tetrahydrothieno[2,3-c]pyridine-2-carbonitrile], the IC50 in data set [3] is 0.69 µM; in data set [7], 16700 nM.
The like results for `CCn1cc(-c2ccccc2C2CN(C(=O)/C=C/CN(C)C)Cc3sc(C#N)c(Cl)c32)c(C(F)(F)F)n1` (stereo not drawn) [Example 214, (E)-3-chloro-6-(4-(dimethylamino)but-2-enoyl)-4-(2-(1-ethyl-3-(trifluoromethyl)-1 H-pyrazol-4-yl)phenyl)-4,5,6,7-tetrahydrothieno[2,3-c]pyridine-2-carbonitrile] were, in that order, 0.356 µM and 3970 nM.
`CNC/C=C/C(=O)N1Cc2sc(C#N)c(C)c2[C@H](c2cccc(F)c2-c2cn(C)nc2C(F)(F)F)C1` [Example 216, (S,E)-4-(3-fluoro-2-(1-methyl-3-(trifluoromethyl)-1 H-pyrazol-4-yl)phenyl)-3-methyl-6-(4-(methylamino)but-2-enoyl)-4,5,6,7-tetrahydrothieno[2,3-c]pyridine-2-carbonitrile]: the 50% inhibitory concentration (IC50) in data set [3] was determined as 0.1 µM; in data set [7], 180 nM.
The like results for `[2H]C([2H])([2H])N(C/C=C/C(=O)N1Cc2sc(C#N)cc2[C@H](c2ccccc2-c2cn(CC)nc2C(F)(F)F)C1)C([2H])([2H])[2H]` [Example 245, (S,E)-6-(4-(bis(methyl-d3)amino)but-2-enoyl)-4-(2-(1-ethyl-3-(trifluoromethyl)-1 H-pyrazol-4-yl)phenyl)-4,5,6,7-tetrahydrothieno[2,3-c]pyridine-2-carbonitrile] were, in that order, 0.207 µM and 4150 nM.
The like results for `CCn1cc(-c2c(F)cccc2[C@@H]2CN(C(=O)/C=C/[C@@H]3CCCN3)Cc3sc(C#N)c(C)c32)c(C(F)(F)F)n1` [Example 249, (S)-4-(2-(1-ethyl-3-(trifluoromethyl)-1 H-pyrazol-4-yl)-3-fluorophenyl)-3-methyl-6-((E)-3-((S)-pyrrolidin-2-yl)acryloyl)-4,5,6,7-tetrahydrothieno[2,3-c]pyridine-2-carbonitrile] were, in that order, 0.169 µM and 140 nM.

Values taken from US20240360148A1 (SUVALENT THERAPEUTICS, INC., priority 2021, published 2024).
